Assay results published in the supplement of paper PMC11061612.

Legend:
Experiment in all cases: Bliss excess, mean over the matrix (fraction); higher = more synergy
[1] = test system: CAL-29 (Bladder Carcinoma)
Procedure, shortened: (§1)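 After 24 hours at 37°C and 5% CO2 in 1536-well plates, cells in DMEM/F12 or RPMI plus 10% FBS received two-drug dose matrices for 72 hours. Viability came from CellTiter-Glo 2.0 luminescence and was scaled as inhibition, anchored at 0 by vehicle wells and at 1 by blank wells. Combination Emax is taken as the second-highest inhibition in the matrix, and Bliss excess as the observed combination effect less EA + EB − EA·EB, with EA and EB the single-agent effects.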

[2] = test system: NCI-H1650 (Lung Adenocarcinoma)
Procedure, shortened: as §1

[3] = test system: PA-1 (Ovarian Carcinoma)
Procedure, shortened: as §1

[4] = test system: ARH-77 (Non-Cancerous)
Procedure, shortened: as §1

[5] = test system: KARPAS-422 (B-Cell Non-Hodgkin's Lymphoma)
Procedure, shortened: as §1

[6] = test system: ONS-76 (Other Solid Carcinomas)
Procedure, shortened: as §1

[7] = test system: SK-MES-1 (Squamous Cell Lung Carcinoma)
Procedure, shortened: as §1

[8] = test system: CAPAN-2 (Pancreatic Carcinoma)
Procedure, shortened: as §1

[9] = test system: PANC-10-05 (Pancreatic Carcinoma)
Procedure, shortened: as §1

[10] = test system: LN-405 (Glioblastoma)
Procedure, shortened: as §1

[11] = test system: SISO (Cervical Carcinoma)
Procedure, shortened: as §1

[12] = test system: NCI-H2066 (Squamous Cell Lung Carcinoma)
Procedure, shortened: as §1

[13] = test system: COLO-824 (Breast Carcinoma)
Procedure, shortened: as §1

[14] = test system: IGR-37 (Melanoma)
Procedure, shortened: as §1

[15] = test system: A498 (Kidney Carcinoma)
Procedure, shortened: as §1

[16] = test system: NCI-H64 (Small Cell Lung Carcinoma)
Procedure, shortened: as §1

[17] = test system: OS-RC-2 (Kidney Carcinoma)
Procedure, shortened: as §1

[18] = test system: GI-ME-N (Neuroblastoma)
Procedure, shortened: as §1

[19] = test system: BICR22 (Oral Cavity Carcinoma)
Procedure, shortened: as §1

[20] = test system: COLO-320-HSR (Colorectal Carcinoma)
Procedure, shortened: as §1

Compound | Bliss excess [1] | Bliss excess [2] | Bliss excess [3] | Bliss excess [4] | Bliss excess [5] | Bliss excess [6] | Bliss excess [7] | Bliss excess [8] | Bliss excess [9] | Bliss excess [10] | Bliss excess [11] | Bliss excess [12] | Bliss excess [13] | Bliss excess [14] | Bliss excess [15] | Bliss excess [16] | Bliss excess [17] | Bliss excess [18] | Bliss excess [19] | Bliss excess [20]
CC(=O)c1c(C)c2cnc(Nc3ccc(N4CCNCC4)cn3)nc2n(C2CCCC2)c1=O [Palbociclib] + Cn1cnc2c(F)c(Nc3ccc(Br)cc3Cl)c(C(=O)NOCCO)cc21 [Selumetinib] (first compound max 10 µM, 7x7, partner max 10 µM) | 0.0021 | -0.0775 | -0.0312 | -0.0147 | 0.062 | 0.0132 | -0.0088 | -0.0199 | -0.0409 | -0.0566 | -0.0488 | -0.0344 | -0.0652 | 0.0324 | -0.0228 | -0.014 | -0.0712 | -0.0012 | 0.102 | -0.0316
COc1cccc(OCCCN)c1-c1cc(Nc2cnc(C#N)cn2)n[nH]1 [Prexasertib] + C=CCn1c(=O)c2cnc(Nc3ccc(N4CCN(C)CC4)cc3)nc2n1-c1cccc(C(C)(C)O)n1 [AZD1775] (first compound max 1 µM, partner max 1 µM) | -0.0079 | 0.0005 | 0.03 | 0.0493 | 0.0841 | -0.0299 | -0.0425 | -0.0231 | -0.0342 | 0.0469 | 0.0814 | -0.0337 | 0.0432 | 0.0322 | -0.0716 | 0.0127 | -0.0531 | 0.0161 | 0.0175 | 0.136
COc1cccc(OCCCN)c1-c1cc(Nc2cnc(C#N)cn2)n[nH]1 [Prexasertib] + CCc1c2c(nc3ccc(O)cc13)-c1cc3c(c(=O)n1C2)COC(=O)[C@]3(O)CC [SN-38] (first compound max 1 µM, 7x7, partner max 0.3 µM) | 0.002 | -0.0339 | -0.0364 | -0.0304 | 0.0037 | -0.0961 | -0.0507 | -0.0205 | -0.0372 | 0.0786 | 0.0277 | 0.0285 | 0.101 | -0.0727 | -0.105 | 0.0021 | -0.0392 | -0.0326 | -0.0684 | 0.115
COc1cccc(OCCCN)c1-c1cc(Nc2cnc(C#N)cn2)n[nH]1 [Prexasertib] + CN(C)CCCOc1ccc(-c2ccc3ncc4c(c3c2)n(C2CCOCC2)c(=O)n4C)cn1 [AZD0156] (first compound max 1 µM, 7x7, partner max 1 µM) | -0.0479 | -0.0451 | 0.0031 | 0.0018 | 0.0128 | -0.0148 | -0.0471 | 0.0147 | -0.0435 | 0.0013 | -0.0056 | -0.0379 | -0.0047 | 0.0026 | 0.034 | -0.0359 | -0.0393 | 0.0737 | -0.0429 | 0.0111
COc1cccc(OCCCN)c1-c1cc(Nc2cnc(C#N)cn2)n[nH]1 [Prexasertib] + C[C@@H]1COCCN1C2=NC(=NC(=C2)C3(CC3)[S@](=N)(=O)C)C4=C5C=CNC5=NC=C4 [AZD6738] (first compound max 1 µM, 7x7, partner max 10 µM) | -0.0331 | 0.0094 | -0.0438 | 0.0006 | -0.0734 | -0.0803 | -0.0205 | -0.003 | 0.0258 | -0.136 | 0.0309 | -0.0154 | -0.0675 | -0.0621 | -0.0514 | -0.0184 | 0.0743 | 0.0681 | -0.0153 | -0.0406
COc1cccc(OCCCN)c1-c1cc(Nc2cnc(C#N)cn2)n[nH]1 [Prexasertib] + Cc1cc2ncnn2cc1Nc1ncc2c(n1)n(C1CCOCC1)c(=O)n2C [AZD7648] (first compound max 1 µM, 7x7, partner max 10 µM) | -0.0754 | 0.0011 | 0.0205 | -0.0015 | -0.0787 | -0.031 | -0.0411 | -0.0045 | -0.038 | -0.017 | 0.0136 | 0.0214 | -0.01 | -0.058 | -0.0206 | -0.0242 | -0.0226 | 0.107 | 0.0594 | -0.0037
COc1cccc(OCCCN)c1-c1cc(Nc2cnc(C#N)cn2)n[nH]1 [Prexasertib] + O=C(c1cc(Cc2n[nH]c(=O)c3ccccc23)ccc1F)N1CCN(C(=O)C2CC2)CC1 [Olaparib] (first compound max 1 µM, 7x7, partner max 10 µM) | -0.185 | -0.0152 | 0.0083 | -0.0485 | -0.044 | -0.123 | -0.0174 | -0.169 | -0.0424 | 0.0837 | 0.0003 | -0.0492 | -0.0481 | -0.0327 | -0.0622 | -0.0438 | -0.0181 | -0.0649 | -0.0685 | -0.131
COc1cc2c(cc1OCCCCCOc1cc3c(cc1OC)C(=O)N1C=C(C)C[C@H]1C=N3)N=C[C@@H]1CC(C)=CN1C2=O [SG3199] + O=C(c1cc(Cc2n[nH]c(=O)c3ccccc23)ccc1F)N1CCN(C(=O)C2CC2)CC1 [Olaparib] (first compound max 0.001 µM, 7x7, partner max 10 µM) | -0.0154 | -0.0575 | 0.0131 | -0.0466 | -0.0044 | -0.0635 | -0.0267 | -0.0506 | -0.0598 | 0.0323 | -0.0198 | -0.0457 | -0.03 | -0.0238 | -0.0336 | -0.0539 | -0.0484 | -0.036 | -0.0473 | -0.0213
CCc1c2c(nc3ccc(O)cc13)-c1cc3c(c(=O)n1C2)COC(=O)[C@]3(O)CC [SN-38] + CN(C)CCCOc1ccc(-c2ccc3ncc4c(c3c2)n(C2CCOCC2)c(=O)n4C)cn1 [AZD0156] (first compound max 0.3 µM, 7x7, partner max 1 µM) | -0.028 | -0.0079 | 0.0713 | 0.0037 | -0.0862 | 0.0091 | -0.0272 | -0.0468 | -0.0858 | -0.0028 | 0.0978 | -0.0517 | 0.0473 | -0.0327 | -0.0444 | -0.0365 | -0.0022 | -0.0089 | 0.0243 | 0.0243
C[C@@H](c1ccc2nccn2c1)n1nnc2ncc(-c3cnn(C)c3)nc21 [Savolitinib] + CC1(C)CCC(CN2CCN(c3ccc(C(=O)NS(=O)(=O)c4ccc(NCC5CCOCC5)c([N+](=O)[O-])c4)c(Oc4cnc5[nH]ccc5c4)c3)CC2)=C(c2ccc(Cl)cc2)C1 [Venetoclax] (first compound max 1 µM, 7x7, partner max 1 µM) | -0.0655 | -0.0716 | -0.0163 | -0.0092 | -0.0282 | -0.0468 | -0.0505 | -0.0682 | -0.0986 | -0.0464 | -0.0438 | -0.0524 | -0.0178 | -0.0519 | -0.0973 | 0.0032 | -0.0854 | -0.0925 | -0.0353 | -0.0223
C[C@@H](c1ccc2nccn2c1)n1nnc2ncc(-c3cnn(C)c3)nc21 [Savolitinib] + Cc1c2c(nn1C)CSCc1cc(n(C)n1)CSc1cc(c3ccccc3c1)OCCCc1c(C(=O)O)n(C)c3c-2c(Cl)ccc13 [AZD5991] (first compound max 1 µM, 7x7, partner max 1 µM) | -0.0474 | -0.0634 | -0.0266 | -0.0181 | -0.0462 | -0.0219 | -0.0361 | -0.0206 | -0.0994 | 0.0023 | -0.0596 | -0.0455 | -0.0212 | 0.0454 | -0.032 | -0.021 | -0.0561 | -0.0778 | -0.0321 | -0.0464
Cn1cnc2c(F)c(Nc3ccc(Br)cc3Cl)c(C(=O)NOCCO)cc21 [Selumetinib] + C=CCn1c(=O)c2cnc(Nc3ccc(N4CCN(C)CC4)cc3)nc2n1-c1cccc(C(C)(C)O)n1 [AZD1775] (first compound max 10 µM, partner max 1 µM) | 0.0074 | -0.0792 | -0.001 | -0.0518 | -0.0508 | -0.0452 | -0.0469 | 0.033 | -0.0898 | -0.0962 | -0.0457 | -0.0776 | -0.105 | 0.0122 | -0.0218 | -0.005 | -0.023 | -0.064 | -0.0362 | -0.0657
Cn1cnc2c(F)c(Nc3ccc(Br)cc3Cl)c(C(=O)NOCCO)cc21 [Selumetinib] + CC(C)n1c(=O)n(C)c2cnc3cc(F)c(-c4ccc(OCCCN5CCCCC5)nc4)cc3c21 [AZD1390] (first compound max 10 µM, 7x7, partner max 0.3 µM) | -0.0073 | -0.0572 | 0.0162 | -0.007 | -0.032 | -0.0108 | -0.0487 | -0.0005 | -0.0783 | -0.0518 | -0.0395 | -0.061 | -0.018 | -0.0398 | -0.0489 | -0.0279 | -0.0371 | -0.0399 | -0.027 | -0.0182
